Test system: 855422-203-R-J1-PDC complex spheroids, viability
Experiment: Anticancer human tumor 855422-203-R-J1-PDC patient-derived bladder carcinoma cell line growth inhibition [CLK]
Conditions: for IC50: curve of first compound; for viability, T/C: stronger effect = lower value
Procedure, shortened: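 Patient-derived tumor cells grown as complex spheroids with HUVEC endothelial cells and mesenchymal stem cells, treated with drug combinations. Concentrations descend in half-log steps from near clinical Cmax, or from 10 microM if Cmax unknown.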

[1] = second compound 0.0316 µM, first compound 0.0316 µM
[2] = second compound 0.0316 µM, first compound 0.1 µM
[3] = second compound 0.0316 µM, first compound 0.316 µM
[4] = second compound 0.0316 µM, first compound 1 µM
[5] = second compound 0.1 µM, first compound 0.0316 µM
[6] = second compound 0.1 µM, first compound 0.1 µM
[7] = second compound 0.1 µM, first compound 0.316 µM
[8] = second compound 0.1 µM, first compound 1 µM
[9] = second compound 0.316 µM, first compound 0.0316 µM
[10] = second compound 0.316 µM, first compound 0.1 µM
[11] = second compound 0.316 µM, first compound 0.316 µM
[12] = second compound 0.316 µM, first compound 1 µM
[13] = second compound 1 µM, first compound 0.0316 µM
[14] = second compound 1 µM, first compound 0.1 µM
[15] = second compound 1 µM, first compound 0.316 µM
[16] = second compound 1 µM, first compound 1 µM
[17] = second compound 3.16 µM, first compound 0.0316 µM
[18] = second compound 3.16 µM, first compound 0.1 µM
[19] = second compound 3.16 µM, first compound 0.316 µM
[20] = second compound 3.16 µM, first compound 1 µM
[21] = second compound 10 µM, first compound 0.0316 µM
[22] = second compound 10 µM, first compound 0.1 µM
[23] = second compound 10 µM, first compound 0.316 µM
[24] = second compound 10 µM, first compound 1 µM
[25] = second compound 0.0316 µM, first compound 0.00316 µM
[26] = second compound 0.0316 µM, first compound 0.01 µM
[27] = second compound 0.1 µM, first compound 0.00316 µM
[28] = second compound 0.1 µM, first compound 0.01 µM
[29] = second compound 0.316 µM, first compound 0.00316 µM
[30] = second compound 0.316 µM, first compound 0.01 µM
[31] = second compound 1 µM, first compound 0.00316 µM
[32] = second compound 1 µM, first compound 0.01 µM
[33] = second compound 3.16 µM, first compound 0.00316 µM
[34] = second compound 3.16 µM, first compound 0.01 µM
[35] = second compound 10 µM, first compound 0.00316 µM
[36] = second compound 10 µM, first compound 0.01 µM
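Also: spheroids exposed to drugs for seven days before readout.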
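For viability, T/C in this document: 100% = DMSO vehicle control wells.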

SMILES: CC1(C)CCC(CN2CCN(c3ccc(C(=O)NS(=O)(=O)c4ccc(NCC5CCOCC5)c([N+](=O)[O-])c4)c(Oc4cnc5[nH]ccc5c4)c3)CC2)=C(c2ccc(Cl)cc2)C1 + CNC(=O)c1ccc(Nc2nc(OC3CCCC3)c3c(-c4ccc5nc(C)oc5c4)c[nH]c3n2)c(OC)c1
- IC50 (second compound 0.0316 µM): 6590 nM
- IC50 (second compound 0.1 µM): 4220 nM
- IC50 (second compound 0.316 µM): < 31.6 nM
- IC50 (second compound 1 µM): < 31.6 nM
- IC50 (second compound 3.16 µM): < 31.6 nM
- IC50 (second compound 10 µM): < 31.6 nM
- viability, T/C [1]: 128%
- viability, T/C [2]: 118%
- viability, T/C [3]: 116%
- viability, T/C [4]: 125%
- viability, T/C (second compound 0.0316 µM, first compound 3.16 µM): 173%
- viability, T/C (second compound 0.0316 µM, first compound 10 µM): 3.47%
- viability, T/C [5]: 54.1%
- viability, T/C [6]: 68.9%
- viability, T/C [7]: 62.4%
- viability, T/C [8]: 75.5%
- viability, T/C (second compound 0.1 µM, first compound 3.16 µM): 69.2%
- viability, T/C (second compound 0.1 µM, first compound 10 µM): 2.06%
- viability, T/C [9]: 20.6%
- viability, T/C [10]: 23.1%
- viability, T/C [11]: 28.9%
- viability, T/C [12]: 20.9%
- viability, T/C (second compound 0.316 µM, first compound 3.16 µM): 20.5%
- viability, T/C (second compound 0.316 µM, first compound 10 µM): 3.1%
- viability, T/C [13]: 21.3%
- viability, T/C [14]: 18.3%
- viability, T/C [15]: 19.3%
- viability, T/C [16]: 27.2%
- viability, T/C (second compound 1 µM, first compound 3.16 µM): 23.3%
- viability, T/C (second compound 1 µM, first compound 10 µM): 3.87%
- viability, T/C [17]: 22.6%
- viability, T/C [18]: 24.9%
- viability, T/C [19]: 19.5%
- viability, T/C [20]: 22.9%
- viability, T/C (second compound 3.16 µM, first compound 3.16 µM): 19.1%
- viability, T/C (second compound 3.16 µM, first compound 10 µM): 6.53%
- viability, T/C [21]: 17.3%
- viability, T/C [22]: 19.6%
- viability, T/C [23]: 19.3%
- viability, T/C [24]: 19.4%
- viability, T/C (second compound 10 µM, first compound 3.16 µM): 19.3%
- viability, T/C (second compound 10 µM, first compound 10 µM): 4.56%

SMILES: CCN1CCN(Cc2ccc(Nc3ncc(F)c(-c4cc(F)c5nc(C)n(C(C)C)c5c4)n3)nc2)CC1 + CN1CCN(c2cc(C(=O)Nc3cc4cc(-c5cnn(C)c5)ccc4cn3)ccn2)CC1
- IC50 (second compound 0.0316 µM): 262 nM
- IC50 (second compound 0.1 µM): 158 nM
- IC50 (second compound 0.316 µM): < 3.16 nM
- IC50 (second compound 1 µM): < 3.16 nM
- IC50 (second compound 3.16 µM): < 3.16 nM
- IC50 (second compound 10 µM): < 3.16 nM
- viability, T/C [25]: 82.8%
- viability, T/C [26]: 97.1%
- viability, T/C [1]: 87.7%
- viability, T/C [2]: 56.2%
- viability, T/C [3]: 54.6%
- viability, T/C [4]: 42.9%
- viability, T/C [27]: 66.3%
- viability, T/C [28]: 72.4%
- viability, T/C [5]: 76.2%
- viability, T/C [6]: 59.9%
- viability, T/C [7]: 34.8%
- viability, T/C [8]: 30.4%
- viability, T/C [29]: 7.42%
- viability, T/C [30]: 10.2%
- viability, T/C [9]: 14.1%
- viability, T/C [10]: 13.1%
- viability, T/C [11]: 18%
- viability, T/C [12]: 14.3%
- viability, T/C [31]: 0.35%
- viability, T/C [32]: 0.82%
- viability, T/C [13]: 1.18%
- viability, T/C [14]: 0.5%
- viability, T/C [15]: 0.97%
- viability, T/C [16]: 1.71%
- viability, T/C [33]: 0.55%
- viability, T/C [34]: 1.57%
- viability, T/C [17]: 0.95%
- viability, T/C [18]: 0.83%
- viability, T/C [19]: 2.86%
- viability, T/C [20]: 2.68%
- viability, T/C [35]: 0.5%
- viability, T/C [36]: 0.53%
- viability, T/C [21]: 0.3%
- viability, T/C [22]: 0.46%
- viability, T/C [23]: 0.64%
- viability, T/C [24]: 0.65%

SMILES: CCc1c2c(nc3ccc(O)cc13)-c1cc3c(c(=O)n1C2)COC(=O)[C@]3(O)CC + CN1CCN(c2cc(C(=O)Nc3cc4cc(-c5cnn(C)c5)ccc4cn3)ccn2)CC1
- IC50 (second compound 0.0316 µM): 4.23 nM
- IC50 (second compound 0.1 µM): < 3.16 nM
- IC50 (second compound 0.316 µM): < 3.16 nM
- IC50 (second compound 1 µM): < 3.16 nM
- IC50 (second compound 3.16 µM): < 3.16 nM
- IC50 (second compound 10 µM): < 3.16 nM
- viability, T/C [25]: 61.9%
- viability, T/C [26]: 14.1%
- viability, T/C [1]: 11.2%
- viability, T/C [2]: 5.5%
- viability, T/C [3]: 3.03%
- viability, T/C [4]: 2.59%
- viability, T/C [27]: 24.7%
- viability, T/C [28]: 12.1%
- viability, T/C [5]: 7.5%
- viability, T/C [6]: 4.65%
- viability, T/C [7]: 3.59%
- viability, T/C [8]: 1.4%
- viability, T/C [29]: 5.85%
- viability, T/C [30]: 5.41%
- viability, T/C [9]: 5.45%
- viability, T/C [10]: 1.97%
- viability, T/C [11]: 0.54%
- viability, T/C [12]: 0.17%
- viability, T/C [31]: 1.09%
- viability, T/C [32]: 0.16%
- viability, T/C [13]: 0.3%
- viability, T/C [14]: 0.23%
- viability, T/C [15]: 0.15%
- viability, T/C [16]: 0.33%
- viability, T/C [33]: 0.33%
- viability, T/C [34]: 0.52%
- viability, T/C [17]: 0.44%
- viability, T/C [18]: 0.3%
- viability, T/C [19]: 0.46%
- viability, T/C [20]: 0.23%
- viability, T/C [35]: 0.38%
- viability, T/C [36]: 0.17%
- viability, T/C [21]: 0.26%
- viability, T/C [22]: 2.2%
- viability, T/C [23]: 2.67%
- viability, T/C [24]: 0.19%
